From PubChem BioAssay AID504438 (Sanford-Burnham Center for Chemical Genomics, 2011)
Active and inactive are the calls of the source.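 Rule for the calls: active = IC50 below 20 µM in the dose response test; inactive = the rest.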

Biological target: Type-1 angiotensin II receptor (Homo sapiens) (UniProt P30556)
Assay: AT1 receptor antagonist selectivity testing, SAR follow-up, selectivity assay for APJ receptor antagonist project, cell-based, CHO-K1 AGTR1, beta-arrestin, luminescence, set 4 (AID 504438)
Settings: CHO-K1 AGTR1 beta-arrestin complementation

Sequence of Type-1 angiotensin II receptor (Homo sapiens) (P30556 whole entry, looked up): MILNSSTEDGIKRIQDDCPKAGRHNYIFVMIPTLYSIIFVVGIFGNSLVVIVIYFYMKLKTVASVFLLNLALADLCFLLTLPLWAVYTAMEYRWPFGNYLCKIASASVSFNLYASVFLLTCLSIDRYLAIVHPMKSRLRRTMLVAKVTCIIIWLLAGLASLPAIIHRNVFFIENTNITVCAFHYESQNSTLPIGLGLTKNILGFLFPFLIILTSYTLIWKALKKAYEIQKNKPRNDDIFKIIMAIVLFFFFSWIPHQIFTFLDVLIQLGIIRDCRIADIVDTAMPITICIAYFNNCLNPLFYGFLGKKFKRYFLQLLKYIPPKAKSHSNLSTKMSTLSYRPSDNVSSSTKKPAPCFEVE

| IC50 | Structure (SMILES) |
| --- | --- |
| > 79 µM (inactive) | O=C(Oc1coc(CN2CCOCC2)cc1=O)c1ccc([N+](=O)[O-])cc1 |
| > 79 µM (inactive) | Cc1cc(C)nc(SCc2cc(=O)c(OC(=O)c3ccc(-c4nccs4)cc3)co2)n1 |
| > 79 µM (inactive) | O=C(Oc1coc(CN2CCOCC2)cc1=O)c1ccccc1 |
| > 79 µM (inactive) | Cc1ccnc(SCc2cc(=O)c(NC(=O)c3ccc([N+](=O)[O-])cc3)co2)n1 |
| > 79 µM (inactive) | O=C(Oc1coc(CSc2ccc(OC(F)(F)F)cc2)cc1=O)c1ccc(Cl)c([N+](=O)[O-])c1 |
| > 79 µM (inactive) | COc1ccc(SCc2cc(=O)c(OC(=O)c3ccc(Cl)c([N+](=O)[O-])c3)co2)cc1 |
| > 79 µM (inactive) | Cc1ccc(SCc2cc(=O)c(OC(=O)c3ccc(Cl)c([N+](=O)[O-])c3)co2)cc1 |
| > 79 µM (inactive) | O=C(Oc1coc(CSc2ccc(Cl)cc2)cc1=O)c1ccc(Cl)c([N+](=O)[O-])c1 |
